Source: PubChem BioAssay (NCI)
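Following 48 hours of exposure in 96-well plates, responses at five concentrations were used to interpolate endpoints linearly. The concentration for 50% growth inhibition is given as GI50. TGI marks complete inhibition of growth.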

Tests used:
Experiment in all cases: NCI anticancer screen, dose series, 48 h
[1] = system: 786-0 renal
[2] = system: A498 renal
[3] = system: A549 NSCLC
[4] = system: ACHN renal
[5] = system: BT-549 breast
[6] = system: CAKI-1 renal
[7] = system: CCRF-CEM leukemia
[8] = system: COLO 205 colon
[9] = system: DU-145 prostate
[10] = system: EKVX NSCLC
[11] = system: HCC-2998 colon
[12] = system: HCT-116 colon
[13] = system: HCT-15 colon
[14] = system: HL-60(TB) leukemia
[15] = system: HOP-62 NSCLC
[16] = system: HOP-92 NSCLC
[17] = system: HS 578T breast
[18] = system: HT29 colon
[19] = system: IGROV1 ovarian
[20] = system: K-562 leukemia
[21] = system: KM12 colon
[22] = system: LOX IMVI melanoma
[23] = system: M14 melanoma
[24] = system: MALME-3M melanoma
[25] = system: MCF7 breast
[26] = system: MDA-MB-231 breast
[27] = system: MDA-MB-435
[28] = system: MOLT-4 leukemia
[29] = system: NCI-H226 lung
[30] = system: NCI-H23 lung
[31] = system: NCI-H460 lung
[32] = system: NCI-H522 lung
[33] = system: NCI/ADR-RES ovarian
[34] = system: OVCAR-3 ovarian
[35] = system: OVCAR-4 ovarian
[36] = system: OVCAR-5 ovarian
[37] = system: OVCAR-8 ovarian
[38] = system: PC-3 prostate
[39] = system: RPMI-8226 leukemia
[40] = system: RXF 393 renal
[41] = system: SF-268 CNS
[42] = system: SF-295 CNS
[43] = system: SF-539 CNS
[44] = system: SK-MEL-2 melanoma
[45] = system: SK-MEL-28 melanoma
[46] = system: SK-MEL-5 melanoma
[47] = system: SK-OV-3 ovarian
[48] = system: SN12C renal
[49] = system: SNB-19 CNS
[50] = system: SNB-75 CNS
[51] = system: SR leukemia
[52] = system: SW-620 colon
[53] = system: T-47D breast
[54] = system: TK-10 renal
[55] = system: U251 CNS
[56] = system: UACC-257 melanoma
[57] = system: UACC-62 melanoma
[58] = system: UO-31 renal

CCCC(=O)NC(c1ccc2c(c1)OC(F)(F)O2)c1cc(C)c2cccnc2c1O (centres undefined)
GI50 [1]: 702 nM
TGI [1]: > 34500 nM
GI50 [2]: > 74700 nM
TGI [2]: > 100000 nM
GI50 [3]: 993 nM
TGI [3]: > 100000 nM
GI50 [4]: 406 nM
TGI [4]: > 36600 nM
GI50 [5]: 918 nM
TGI [5]: > 100000 nM
GI50 [6]: 438 nM
TGI [6]: 21400 nM
GI50 [7]: 443 nM
TGI [7]: > 100000 nM
GI50 [8]: 1260 nM
TGI [8]: > 100000 nM
GI50 [9]: 1780 nM
TGI [9]: > 100000 nM
GI50 [10]: 987 nM
TGI [10]: > 100000 nM
GI50 [11]: 780 nM
TGI [11]: > 100000 nM
GI50 [12]: 509 nM
TGI [12]: > 100000 nM
GI50 [13]: 353 nM
TGI [13]: > 100000 nM
GI50 [14]: 391 nM
TGI [14]: > 100000 nM
GI50 [15]: 592 nM
TGI [15]: > 100000 nM
GI50 [16]: 296 nM
TGI [16]: 33400 nM
GI50 [17]: 2190 nM
TGI [17]: > 100000 nM
GI50 [18]: 492 nM
TGI [18]: > 100000 nM
GI50 [19]: 453 nM
GI50 [20]: 367 nM
TGI [20]: > 100000 nM
GI50 [21]: 793 nM
TGI [21]: > 100000 nM
GI50 [22]: 451 nM
TGI [22]: > 33400 nM
GI50 [23]: 532 nM
TGI [23]: 3820 nM
GI50 [24]: 1080 nM
TGI [24]: > 26700 nM
GI50 [25]: 419 nM
TGI [25]: > 100000 nM
GI50 [26]: 565 nM
TGI [26]: > 100000 nM
GI50 [27]: 1090 nM
TGI [27]: > 100000 nM
GI50 [28]: 397 nM
TGI [28]: > 100000 nM
GI50 [29]: 544 nM
TGI [29]: > 22800 nM
GI50 [30]: 669 nM
TGI [30]: > 100000 nM
GI50 [31]: 421 nM
TGI [31]: > 100000 nM
GI50 [32]: 326 nM
TGI [32]: > 32300 nM
GI50 [33]: 290 nM
TGI [33]: 4820 nM
GI50 [34]: 437 nM
TGI [34]: > 100000 nM
GI50 [35]: 446 nM
TGI [35]: > 100000 nM
GI50 [36]: 1730 nM
TGI [36]: > 100000 nM
GI50 [37]: 406 nM
TGI [37]: > 100000 nM
GI50 [38]: 651 nM
TGI [38]: > 100000 nM
GI50 [39]: 727 nM
TGI [39]: > 100000 nM
GI50 [40]: 3170 nM
TGI [40]: > 47300 nM
GI50 [41]: 690 nM
TGI [41]: > 100000 nM
GI50 [42]: 691 nM
TGI [42]: > 100000 nM
GI50 [43]: 666 nM
TGI [43]: 12000 nM
GI50 [44]: 1280 nM
TGI [44]: > 68700 nM
GI50 [45]: 637 nM
TGI [45]: > 100000 nM
GI50 [46]: 714 nM
TGI [46]: 2350 nM
GI50 [47]: 510 nM
TGI [47]: > 67500 nM
GI50 [48]: 886 nM
TGI [48]: > 100000 nM
GI50 [49]: 825 nM
TGI [49]: > 100000 nM
GI50 [50]: 685 nM
TGI [50]: 8430 nM
GI50 [51]: 436 nM
TGI [51]: > 100000 nM
GI50 [52]: 695 nM
TGI [52]: > 100000 nM
GI50 [53]: 504 nM
TGI [53]: > 100000 nM
GI50 [54]: 1990 nM
TGI [54]: > 100000 nM
GI50 [55]: 473 nM
TGI [55]: > 84600 nM
GI50 [56]: 1300 nM
TGI [56]: > 28900 nM
GI50 [57]: 275 nM
TGI [57]: 1970 nM
GI50 [58]: 218 nM
